Measurements from the CheMixHub viscosity set.
Several values for one entry are separate records, joined by “and”; a condition that tells them apart may be missing. Equal entries are not always repeated.

Experiment: xn = mol fraction of the nth substance listed

CN(CCO)CCO + O
viscosity
Settings | 293.15 K | 298.15 K | 303.15 K | 308.15 K | 313.15 K | 323.15 K
100 kPa, x1 = 0.131 | – | 9.324 mPa·s | – | – | – | –
101 kPa, x1 = 0.06 | – | – | 2.548 mPa·s | – | 1.906 mPa·s | –
101 kPa, x1 = 0.1 | 7.325 mPa·s | – | 4.901 mPa·s | – | 3.458 mPa·s | 2.551 mPa·s
101 kPa, x1 = 0.11 | – | – | 5.312 mPa·s | – | 3.729 mPa·s | 2.777 mPa·s
101 kPa, x1 = 0.1991 | 26.19 mPa·s | – | 15.41 mPa·s | – | 9.684 mPa·s | 6.517 mPa·s
101 kPa, x1 = 0.2985 | 56.54 mPa·s | – | 31.07 mPa·s | – | 18.14 mPa·s | 11.42 mPa·s
101 kPa, x1 = 0.3975 | 84.73 mPa·s | – | 45.33 mPa·s | – | 25.74 mPa·s | 15.8 mPa·s
101 kPa, x1 = 0.4963 | 103.2 mPa·s | – | 54.91 mPa·s | – | 31.5 mPa·s | 18.96 mPa·s
101 kPa, x1 = 0.5949 | 113.9 mPa·s | – | 60.93 mPa·s | – | – | 20.85 mPa·s
101 kPa, x1 = 0.6934 | 115.5 mPa·s | – | 62.48 mPa·s | – | 35.73 mPa·s | 21.72 mPa·s
101 kPa, x1 = 0.7916 | 113.6 mPa·s | – | 61.99 mPa·s | – | 35.44 mPa·s | 21.95 mPa·s
101 kPa, x1 = 0.8896 | 109.8 mPa·s | – | 59.49 mPa·s | – | 35.12 mPa·s | –
101 kPa, x2 = 0.815 | – | 17.44 mPa·s | – | – | – | –
101 kPa, x2 = 0.9 | – | 9.66 mPa·s | – | – | – | –
101 kPa, x2 = 0.91 | 6.35 mPa·s | 5.4 mPa·s and 5.25 mPa·s | 4.34 mPa·s | – | – | –
101 kPa, x2 = 0.9391 | – | 3.27 mPa·s | – | – | – | –
101 kPa, x2 = 0.94 | 3.53 mPa·s | 2.99 mPa·s | 2.54 mPa·s | – | 1.89 mPa·s | 1.45 mPa·s
101 kPa, x2 = 0.96 | 2.264 mPa·s | 1.921 mPa·s | 1.695 mPa·s | – | 1.32 mPa·s | –
101.3 kPa, x1 = 0.02 | 1.541 mPa·s | 1.316 mPa·s | – | – | 0.931 mPa·s | 0.773 mPa·s
101.3 kPa, x1 = 0.04 | 2.268 mPa·s | 1.924 mPa·s | 1.697 mPa·s | – | 1.325 mPa·s | 1.068 mPa·s
101.3 kPa, x1 = 0.06 | 3.637 mPa·s | 3.036 mPa·s | 2.594 mPa·s | – | – | –
101.3 kPa, x1 = 0.09 | 6.345 mPa·s | 5.245 mPa·s | 4.325 mPa·s | – | 3.107 mPa·s | 2.367 mPa·s
101.3 kPa, x1 = 0.1 | 11.84 mPa·s | 9.196 mPa·s | 7.437 mPa·s | – | 5.101 mPa·s | 3.599 mPa·s
101.3 kPa, x1 = 0.2 | 22.64 mPa·s | 17.25 mPa·s | – | – | 8.843 mPa·s | 6.015 mPa·s
101.3 kPa, x1 = 0.3 | 37.14 mPa·s | 29.03 mPa·s | 22.69 mPa·s | – | 14.91 mPa·s | 9.618 mPa·s
101.3 kPa, x1 = 0.4 | 71.95 mPa·s | 58.29 mPa·s | 42.41 mPa·s | – | 24.45 mPa·s | 14.36 mPa·s
101.3 kPa, x1 = 0.6 | 101.9 mPa·s | 81.67 mPa·s | 54.66 mPa·s | – | 34.23 mPa·s | 19.22 mPa·s
101.33 kPa, x1 = 0.017 | – | – | 1.137 mPa·s | – | 0.907 mPa·s | –
101.33 kPa, x1 = 0.036 | 2.262 mPa·s | 1.941 mPa·s | 1.686 mPa·s | – | – | 1.051 mPa·s
101.33 kPa, x1 = 0.061 | 3.69 mPa·s | 3.092 mPa·s | – | – | – | –
101.33 kPa, x1 = 0.092 | 6.452 mPa·s | 5.253 mPa·s | 4.359 mPa·s | 3.671 mPa·s | 3.112 mPa·s | 2.309 mPa·s
101.33 kPa, x1 = 0.13 | 11.7 mPa·s | 9.208 mPa·s | 7.436 mPa·s | 6.097 mPa·s | – | 3.642 mPa·s

[Ca+2].[Cl-].[Cl-] + O
Settings | viscosity [mPa·s]
293.15 K, 101 kPa, x1 = 0.059 | 2.97
298.15 K, 101 kPa, x1 = 0.000396 | 0.8977
298.15 K, 101 kPa, x1 = 0.00043 | 0.8982
298.15 K, 101 kPa, x1 = 0.00081 | 0.9042
298.15 K, 101 kPa, x1 = 0.000844 | 0.9046
298.15 K, 101 kPa, x1 = 0.00106 | 0.9082
298.15 K, 101 kPa, x1 = 0.00107 | 0.9081
298.15 K, 101 kPa, x1 = 0.00123 | 0.9106
298.15 K, 101 kPa, x1 = 0.0013 | 0.9117
298.15 K, 101 kPa, x1 = 0.00147 | 0.9145
298.15 K, 101 kPa, x1 = 0.00151 | 0.9149
298.15 K, 101 kPa, x1 = 0.00175 | 0.9186
298.15 K, 101 kPa, x1 = 0.002367 | 0.9277
298.15 K, 101 kPa, x1 = 0.002527 | 0.9302
298.15 K, 101 kPa, x1 = 0.002586 | 0.9311
298.15 K, 101 kPa, x1 = 0.003329 | 0.9425
298.15 K, 101 kPa, x1 = 0.003395 | 0.9435
298.15 K, 101 kPa, x1 = 0.003497 | 0.945
298.15 K, 101 kPa, x1 = 0.003672 | 0.9476
298.15 K, 101 kPa, x1 = 0.004546 | 0.9609
298.15 K, 101 kPa, x1 = 0.004721 | 0.9637
298.15 K, 101 kPa, x1 = 0.005244 | 0.9719
298.15 K, 101 kPa, x1 = 0.006244 | 0.9873
298.15 K, 101 kPa, x1 = 0.007041 | 1
298.15 K, 101 kPa, x1 = 0.007167 | 1.002
298.15 K, 101 kPa, x1 = 0.007446 | 1.006
298.15 K, 101 kPa, x1 = 0.008695 | 1.027
298.15 K, 101 kPa, x1 = 0.009449 | 1.039
298.15 K, 101 kPa, x1 = 0.009885 | 1.046
298.15 K, 101 kPa, x1 = 0.01022 | 1.052
298.15 K, 101 kPa, x1 = 0.01042 | 1.055
298.15 K, 101 kPa, x1 = 0.01059 | 1.058
298.15 K, 101 kPa, x1 = 0.01077 | 1.061
298.15 K, 101 kPa, x1 = 0.01094 | 1.064
298.15 K, 101 kPa, x1 = 0.01192 | 1.081
298.15 K, 101 kPa, x1 = 0.01272 | 1.095
298.15 K, 101 kPa, x1 = 0.01378 | 1.114
298.15 K, 101 kPa, x1 = 0.01401 | 1.118
298.15 K, 101 kPa, x1 = 0.01513 | 1.139
298.15 K, 101 kPa, x1 = 0.01538 | 1.143
298.15 K, 101 kPa, x1 = 0.01928 | 1.219
298.15 K, 101 kPa, x1 = 0.02043 | 1.243
298.15 K, 101 kPa, x1 = 0.02048 | 1.244
298.15 K, 101 kPa, x1 = 0.02097 | 1.254
298.15 K, 101 kPa, x1 = 0.02327 | 1.304
298.15 K, 101 kPa, x1 = 0.02529 | 1.35
298.15 K, 101 kPa, x1 = 0.02589 | 1.364
298.15 K, 101 kPa, x1 = 0.0267 | 1.383
298.15 K, 101 kPa, x1 = 0.027 | 1.391
298.15 K, 101 kPa, x1 = 0.02942 | 1.451
298.15 K, 101 kPa, x1 = 0.02988 | 1.464
298.15 K, 101 kPa, x1 = 0.03066 | 1.484
298.15 K, 101 kPa, x1 = 0.03069 | 1.485
298.15 K, 101 kPa, x1 = 0.0311 | 1.496
298.15 K, 101 kPa, x1 = 0.03274 | 1.541
298.15 K, 101 kPa, x1 = 0.03315 | 1.553
298.15 K, 101 kPa, x1 = 0.03378 | 1.572
298.15 K, 101 kPa, x1 = 0.03442 | 1.59
298.15 K, 101 kPa, x1 = 0.03633 | 1.648
298.15 K, 101 kPa, x1 = 0.03656 | 1.654
298.15 K, 101 kPa, x1 = 0.03673 | 1.66
298.15 K, 101 kPa, x1 = 0.03831 | 1.711
298.15 K, 101 kPa, x1 = 0.03856 | 1.719
298.15 K, 101 kPa, x1 = 0.04162 | 1.824
298.15 K, 101 kPa, x1 = 0.04322 | 1.883
298.15 K, 101 kPa, x1 = 0.04455 | 1.933
298.15 K, 101 kPa, x1 = 0.04537 | 1.967
298.15 K, 101 kPa, x1 = 0.04781 | 2.068
298.15 K, 101 kPa, x1 = 0.04866 | 2.105
298.15 K, 101 kPa, x1 = 0.0498 | 2.157
298.15 K, 101 kPa, x1 = 0.0506 | 2.194
298.15 K, 101 kPa, x1 = 0.0536 | 2.342
298.15 K, 101 kPa, x1 = 0.05494 | 2.412
298.15 K, 101 kPa, x1 = 0.05842 | 2.611
298.15 K, 101 kPa, x1 = 0.06081 | 2.761
298.15 K, 101 kPa, x1 = 0.06128 | 2.791
298.15 K, 101 kPa, x1 = 0.065 | 3.054
298.15 K, 101 kPa, x1 = 0.06579 | 3.114
298.15 K, 101 kPa, x1 = 0.06654 | 3.173
298.15 K, 101 kPa, x1 = 0.06668 | 3.182
298.15 K, 101 kPa, x1 = 0.07055 | 3.515
298.15 K, 101 kPa, x1 = 0.07902 | 4.414
298.15 K, 101 kPa, x1 = 0.08019 | 4.563
298.15 K, 101 kPa, x1 = 0.08048 | 4.6
298.15 K, 101 kPa, x1 = 0.08806 | 5.733
298.15 K, 101 kPa, x1 = 0.08818 | 5.754
298.15 K, 101 kPa, x1 = 0.09192 | 6.437
298.15 K, 101 kPa, x1 = 0.09327 | 6.707
298.15 K, 101 kPa, x1 = 0.09562 | 7.209
298.15 K, 101 kPa, x1 = 0.09975 | 8.198
298.15 K, 101 kPa, x1 = 0.1012 | 8.586
298.15 K, 101 kPa, x1 = 0.1071 | 10.34
298.15 K, 101 kPa, x1 = 0.1099 | 11.29
298.15 K, 101 kPa, x1 = 0.1131 | 12.5
298.15 K, 101 kPa, x1 = 0.1167 | 14.03
298.15 K, 101 kPa, x1 = 0.1168 | 14.08
298.15 K, 101 kPa, x1 = 0.1185 | 14.84
298.15 K, 101 kPa, x1 = 0.1243 | 17.82
298.15 K, 101.3 kPa, x1 = 0.03478 | 1.609
298.15 K, 101.3 kPa, x1 = 0.05127 | 2.238
